Measured values: the supplement of paper PMC10307832

Experiments:
Experiment in all cases: relative viability (nuclei count vs DMSO), 5 days (fraction); higher = more cells survive
Bemcentinib + Navitoclax = compound: Nc1nc(Nc2ccc3c(c2)CC[C@@H](N2CCCC2)CC3)nn1-c1cc2c(nn1)-c1ccccc1CCC2 [Bemcentinib] + CC1(C)CCC(c2ccc(Cl)cc2)=C(CN2CCN(c3ccc(C(=O)NS(=O)(=O)c4ccc(N[C@H](CCN5CCOCC5)CSc5ccccc5)c(S(=O)(=O)C(F)(F)F)c4)cc3)CC2)C1 [Navitoclax] (partner 0.5 µM)
In short: (§1)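 One day after seeding in 1536-well plates, lung cancer cell lines were dosed by pin tool. Dosing was either single-drug or a fixed anchor-drug dose plus five library-drug doses (not always all listed) in √10 steps. After 5 days, nuclei were stained in one fix-and-stain step and counted on 4× images, and relative viability is the nuclei count of treated wells over that of vehicle wells, given as the median of duplicate plates.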

Axitinib + Lapatinib = compound: CNC(=O)c1ccccc1Sc1ccc2c(/C=C/c3ccccn3)n[nH]c2c1 [Axitinib] + CS(=O)(=O)CCNCc1ccc(-c2ccc3ncnc(Nc4ccc(OCc5cccc(F)c5)c(Cl)c4)c3c2)o1 [Lapatinib] (partner 2 µM)
In short: as §1

[1] = compound: CC1=CC=C(C=C1)C(=O)CN2C3=C(CCCC3)SC2=N [Pifithrin_alpha] + CS(=O)(=O)N1CCN(Cc2cc3nc(-c4cccc5[nH]ncc45)nc(N4CCOCC4)c3s2)CC1 [Pictilisib] (partner 1 µM)
In short: as §1

Bemcentinib + Linsitinib = compound: Nc1nc(Nc2ccc3c(c2)CC[C@@H](N2CCCC2)CC3)nn1-c1cc2c(nn1)-c1ccccc1CCC2 [Bemcentinib] + C[C@]1(O)C[C@@H](c2nc(-c3ccc4ccc(-c5ccccc5)nc4c3)c3c(N)nccn32)C1 [Linsitinib] (partner 1 µM)
In short: as §1

NCI-H1666
relative viability (Bemcentinib + Navitoclax; first compound 0.04 µM): 0.864 | relative viability (Bemcentinib + Navitoclax; first compound 0.1265 µM): 0.942 | relative viability (Bemcentinib + Navitoclax; first compound 0.4 µM): 1.01 | relative viability (Bemcentinib + Navitoclax; first compound 1.265 µM): 0.866 | relative viability (Bemcentinib + Navitoclax; first compound 4 µM): 1.03 | relative viability (Axitinib + Lapatinib; first compound 0.005 µM): 0.767 | relative viability (Axitinib + Lapatinib; first compound 0.01581 µM): 0.741 | relative viability (Axitinib + Lapatinib; first compound 0.05 µM): 0.608 | relative viability (Axitinib + Lapatinib; first compound 0.1581 µM): 0.62 | relative viability (Axitinib + Lapatinib; first compound 0.5 µM): 0.946 | relative viability ([1]; first compound 1 µM): 0.351 | relative viability ([1]; first compound 3.162 µM): 0.296 | relative viability ([1]; first compound 10 µM): 0.277 | relative viability ([1]; first compound 31.62 µM): 0.238 | relative viability ([1]; first compound 100 µM): 0.293 | relative viability (Bemcentinib + Linsitinib; first compound 0.04 µM): 0.932 | relative viability (Bemcentinib + Linsitinib; first compound 0.1265 µM): 0.872 | relative viability (Bemcentinib + Linsitinib; first compound 0.4 µM): 0.958 | relative viability (Bemcentinib + Linsitinib; first compound 1.265 µM): 0.972 | relative viability (Bemcentinib + Linsitinib; first compound 4 µM): 0.707

NCI-H1755
relative viability (Bemcentinib + Navitoclax; first compound 0.04 µM): 1.05 | relative viability (Bemcentinib + Navitoclax; first compound 0.1265 µM): 1.04 | relative viability (Bemcentinib + Navitoclax; first compound 0.4 µM): 1.03 | relative viability (Bemcentinib + Navitoclax; first compound 1.265 µM): 1.11 | relative viability (Bemcentinib + Navitoclax; first compound 4 µM): 1.08 | relative viability (Axitinib + Lapatinib; first compound 0.005 µM): 1.06 | relative viability (Axitinib + Lapatinib; first compound 0.01581 µM): 0.998 | relative viability (Axitinib + Lapatinib; first compound 0.05 µM): 1.06 | relative viability (Axitinib + Lapatinib; first compound 0.1581 µM): 1.04 | relative viability (Axitinib + Lapatinib; first compound 0.5 µM): 0.99 | relative viability ([1]; first compound 1 µM): 0.296 | relative viability ([1]; first compound 3.162 µM): 0.451 | relative viability ([1]; first compound 10 µM): 0.395 | relative viability ([1]; first compound 31.62 µM): 0.307 | relative viability ([1]; first compound 100 µM): 0.39 | relative viability (Bemcentinib + Linsitinib; first compound 0.04 µM): 1.03 | relative viability (Bemcentinib + Linsitinib; first compound 0.1265 µM): 1.02 | relative viability (Bemcentinib + Linsitinib; first compound 0.4 µM): 1.04 | relative viability (Bemcentinib + Linsitinib; first compound 1.265 µM): 1.04 | relative viability (Bemcentinib + Linsitinib; first compound 4 µM): 1.11

NCI-H520
relative viability (Bemcentinib + Navitoclax; first compound 0.04 µM): 1.19 | relative viability (Bemcentinib + Navitoclax; first compound 0.1265 µM): 1.19 | relative viability (Bemcentinib + Navitoclax; first compound 0.4 µM): 1.42 | relative viability (Bemcentinib + Navitoclax; first compound 1.265 µM): 1.11 | relative viability (Bemcentinib + Navitoclax; first compound 4 µM): 1.07 | relative viability (Axitinib + Lapatinib; first compound 0.005 µM): 0.902 | relative viability (Axitinib + Lapatinib; first compound 0.01581 µM): 0.778 | relative viability (Axitinib + Lapatinib; first compound 0.05 µM): 0.771 | relative viability (Axitinib + Lapatinib; first compound 0.1581 µM): 0.751 | relative viability (Axitinib + Lapatinib; first compound 0.5 µM): 0.785 | relative viability ([1]; first compound 1 µM): 0.27 | relative viability ([1]; first compound 3.162 µM): 0.311 | relative viability ([1]; first compound 10 µM): 0.301 | relative viability ([1]; first compound 31.62 µM): 0.269 | relative viability ([1]; first compound 100 µM): 0.285 | relative viability (Bemcentinib + Linsitinib; first compound 0.04 µM): 0.85 | relative viability (Bemcentinib + Linsitinib; first compound 0.1265 µM): 0.982 | relative viability (Bemcentinib + Linsitinib; first compound 0.4 µM): 1.08 | relative viability (Bemcentinib + Linsitinib; first compound 1.265 µM): 1.01 | relative viability (Bemcentinib + Linsitinib; first compound 4 µM): 1.18

PC-14
relative viability (Bemcentinib + Navitoclax; first compound 0.04 µM): 1.07 | relative viability (Bemcentinib + Navitoclax; first compound 0.1265 µM): 1.12 | relative viability (Bemcentinib + Navitoclax; first compound 0.4 µM): 1.16 | relative viability (Bemcentinib + Navitoclax; first compound 1.265 µM): 1.05 | relative viability (Bemcentinib + Navitoclax; first compound 4 µM): 0.997 | relative viability (Axitinib + Lapatinib; first compound 0.005 µM): 0.294 | relative viability (Axitinib + Lapatinib; first compound 0.01581 µM): 0.288 | relative viability (Axitinib + Lapatinib; first compound 0.05 µM): 0.402 | relative viability (Axitinib + Lapatinib; first compound 0.1581 µM): 0.278 | relative viability (Axitinib + Lapatinib; first compound 0.5 µM): 0.332 | relative viability ([1]; first compound 1 µM): 0.764 | relative viability ([1]; first compound 3.162 µM): 0.674 | relative viability ([1]; first compound 10 µM): 0.645 | relative viability ([1]; first compound 31.62 µM): 0.495 | relative viability ([1]; first compound 100 µM): 0.563 | relative viability (Bemcentinib + Linsitinib; first compound 0.04 µM): 0.982 | relative viability (Bemcentinib + Linsitinib; first compound 0.1265 µM): 1.02 | relative viability (Bemcentinib + Linsitinib; first compound 0.4 µM): 1.06 | relative viability (Bemcentinib + Linsitinib; first compound 1.265 µM): 1.07 | relative viability (Bemcentinib + Linsitinib; first compound 4 µM): 1.08

NCI-H2405
relative viability (Bemcentinib + Navitoclax; first compound 0.04 µM): 0.788 | relative viability (Bemcentinib + Navitoclax; first compound 0.1265 µM): 0.868 | relative viability (Bemcentinib + Navitoclax; first compound 0.4 µM): 0.859 | relative viability (Bemcentinib + Navitoclax; first compound 1.265 µM): 0.877 | relative viability (Bemcentinib + Navitoclax; first compound 4 µM): 0.84 | relative viability (Axitinib + Lapatinib; first compound 0.005 µM): 1.09 | relative viability (Axitinib + Lapatinib; first compound 0.01581 µM): 1.06 | relative viability (Axitinib + Lapatinib; first compound 0.05 µM): 1.34 | relative viability (Axitinib + Lapatinib; first compound 0.1581 µM): 1.07 | relative viability (Axitinib + Lapatinib; first compound 0.5 µM): 1.02 | relative viability ([1]; first compound 3.162 µM): 0.39 | relative viability ([1]; first compound 10 µM): 0.427 | relative viability ([1]; first compound 31.62 µM): 0.403 | relative viability ([1]; first compound 100 µM): 0.292 | relative viability (Bemcentinib + Linsitinib; first compound 0.04 µM): 0.874 | relative viability (Bemcentinib + Linsitinib; first compound 0.1265 µM): 0.966 | relative viability (Bemcentinib + Linsitinib; first compound 0.4 µM): 0.965 | relative viability (Bemcentinib + Linsitinib; first compound 1.265 µM): 0.918 | relative viability (Bemcentinib + Linsitinib; first compound 4 µM): 0.896

NCI-H1395
relative viability (Bemcentinib + Navitoclax; first compound 0.04 µM): 1.11 | relative viability (Bemcentinib + Navitoclax; first compound 0.1265 µM): 1.35 | relative viability (Bemcentinib + Navitoclax; first compound 0.4 µM): 1.05 | relative viability (Bemcentinib + Navitoclax; first compound 1.265 µM): 1.23 | relative viability (Bemcentinib + Navitoclax; first compound 4 µM): 1.19 | relative viability (Axitinib + Lapatinib; first compound 0.005 µM): 1.31 | relative viability (Axitinib + Lapatinib; first compound 0.01581 µM): 0.887 | relative viability (Axitinib + Lapatinib; first compound 0.05 µM): 1.12 | relative viability (Axitinib + Lapatinib; first compound 0.1581 µM): 0.792 | relative viability (Axitinib + Lapatinib; first compound 0.5 µM): 0.922 | relative viability ([1]; first compound 3.162 µM): 0.553 | relative viability ([1]; first compound 10 µM): 0.562 | relative viability ([1]; first compound 31.62 µM): 0.465 | relative viability ([1]; first compound 100 µM): 0.484 | relative viability (Bemcentinib + Linsitinib; first compound 0.04 µM): 1.06 | relative viability (Bemcentinib + Linsitinib; first compound 0.1265 µM): 1.21 | relative viability (Bemcentinib + Linsitinib; first compound 0.4 µM): 1.01 | relative viability (Bemcentinib + Linsitinib; first compound 1.265 µM): 1.48 | relative viability (Bemcentinib + Linsitinib; first compound 4 µM): 0.962

NCI-H596
relative viability (Bemcentinib + Navitoclax; first compound 0.04 µM): 0.955 | relative viability (Bemcentinib + Navitoclax; first compound 0.1265 µM): 0.994 | relative viability (Bemcentinib + Navitoclax; first compound 0.4 µM): 1.11 | relative viability (Bemcentinib + Navitoclax; first compound 1.265 µM): 1.04 | relative viability (Bemcentinib + Navitoclax; first compound 4 µM): 1.14 | relative viability (Axitinib + Lapatinib; first compound 0.005 µM): 1.11 | relative viability (Axitinib + Lapatinib; first compound 0.01581 µM): 0.935 | relative viability (Axitinib + Lapatinib; first compound 0.05 µM): 1.03 | relative viability (Axitinib + Lapatinib; first compound 0.1581 µM): 0.887 | relative viability (Axitinib + Lapatinib; first compound 0.5 µM): 1.14 | relative viability ([1]; first compound 1 µM): 0.354 | relative viability ([1]; first compound 3.162 µM): 0.349 | relative viability ([1]; first compound 10 µM): 0.379 | relative viability ([1]; first compound 31.62 µM): 0.342 | relative viability ([1]; first compound 100 µM): 0.392 | relative viability (Bemcentinib + Linsitinib; first compound 0.04 µM): 1.03 | relative viability (Bemcentinib + Linsitinib; first compound 0.1265 µM): 1.03 | relative viability (Bemcentinib + Linsitinib; first compound 0.4 µM): 1.03 | relative viability (Bemcentinib + Linsitinib; first compound 1.265 µM): 1.17 | relative viability (Bemcentinib + Linsitinib; first compound 4 µM): 1.06
